In patent publication US11465974B2, “Crystalline polymorphs of Pracinostat and Pracinostat salts” (ASSIA CHEMICAL INDUSTRIES LTD., priority 2017, dated 2022):
Where a name gives a salt, the structure may show the parent alone.

Columns and labels:
Assay type in all cases: physicochemical
Grinding stability test = conditions: ground by mortar and pestle for 1 minute at room temperature, without solvent or with one drop of ethanol, isopropyl alcohol or water
Experimental: Grinding stability test: The tested sample was grinded by moltal&pestle for 1 minute at room temperature either without a solvent or with one drop of solvent from the following solvents: Ethanol, Isopropyl alcohol and water.

[1] = Physical pressure stability test; conditions: 3 ton pressure for 1 minute at room temperature
Experimental: Physical pressure stability test: The tested sample was exposed to 3 ton pressure for 1 minute at room temperature.

Thermal stability test = conditions: heated to 100° C. for 30 minutes at open dish
Experimental: Thermal stability test: The tested sample was heated to temperature of 100° C. for 30 minutes at open dish.

[2] = Hygroscopicity (absorption of water, determined for example by TGA)
Source text: As used herein the term non-hygroscopic in relation to crystalline forms of Pracinostat refers to less than 0.2% (w/w) absorption of water, by the crystalline form of Pracinostat, as determined for example by TGA. Water can be for example atmospheric water.

[3] = Polymorphic stability at relative humidity 0% to 100%; conditions: RH of from 0% to 100%, room temperature

| SMILES | stability under grinding (Grinding stability test) | stability under physical pressure [1] | stability under thermal test (Thermal stability test) | absorption of water (hygroscopicity) [2] | period of polymorphic stability [3] |
| --- | --- | --- | --- | --- | --- |
| CCCCc1nc2cc(/C=C/C(=O)NO)ccc2n1CCN(CC)CC [Pracinostat sulfate Form S1] | stable | stable | stable | less than 2 % (w/w) | at least 7 days |
| CCCCc1nc2cc(/C=C/C(=O)NO)ccc2n1CCN(CC)CC [Form P7, (E)-3-[2-Butyl-1-[2-(diethylamino)ethyl]-1H-benzo[d]imidazol-5-yl]-N-hydroxy-acrylamide] | stable | stable | stable | less than 0.2 % (w/w) | at least 7 days |
| CCCCc1nc2cc(/C=C/C(=O)NO)ccc2n1CCN(CC)CC [Form P3, (E)-3-[2-Butyl-1-[2-(diethylamino)ethyl]-1H-benzo[d]imidazol-5-yl]-N-hydroxy-acrylamide] | stable | stable | stable | less than 0.2 % (w/w) | at least 7 days |
